These results are taken from PMC9071099, “Towards an advanced testing strategy for genotoxicity using image-based 2D and 3D HepG2 DNA damage response fluorescent protein reporters” (Mutagenesis, 2021).

Like-named read-outs stand apart in the source and are kept apart here.

Data set [1] has as its system p53-GFP HepG2 reporter. In words: p53-GFP reporter activation, live cell confocal imaging. Type of data set: cell-based, human. To be noted: 2D, normal DMEM medium. The protocol:
(§1) The HepG2 BAC-GFP reporters for human BTG2, p21 and p53 were generated previously and used to monitor the DDR ([14],[18]). Cells were maintained in DMEM high glucose (Gibco) supplemented with 10% (v/v) fetal bovine serum (FBS), 25 U/ml penicillin and 25 µg/ml streptomycin (referred to as normal DMEM medium) at 37°C and 5% CO2. The reporter cells were tested between passages 19–21 throughout the data presented (Supplementary Figure 1, available at Mutagenesis Online).
Two different compound exposure scenarios were performed: a single exposure in 2D and a 4-day repeated exposure in 3D. A schematic overview of the tested exposure scenarios for each HepG2 model has been depicted in Figure 1. For the single exposure scenario in 2D, medium was replaced by freshly diluted compound in medium 24 h post seeding. DDRs were monitored after 24, 48 and 72 h by live cell confocal imaging (Figure 1A and B). […] The ATP-lite luminescence kit (Perkin Elmer) was used according to supplier’s protocol to measure cell viability. […]
Prior to imaging, cells were stained with Hoechst 33342 at a concentration of 0.1 µg/ml to visualise the nuclei. […] The induction of GFP intensities and PI were monitored with a Nikon Eclipse Ti confocal laser microscope (Nikon, Amsterdam, The Netherlands), equipped with lasers at wavelengths 408, 488 and 561, an automated stage and perfect focus system at 37°C and 5% CO2. […]

The subject of data set [2] is BTG2-GFP HepG2 reporter. Type of data set: cell-based. The protocol:
as §1
(§2) Two different compound exposure scenarios were performed: a single exposure in 2D and a 4-day repeated exposure in 3D. A schematic overview of the tested exposure scenarios for each HepG2 model has been depicted in Figure 1. For the single exposure scenario in 2D, medium was replaced by freshly diluted compound in medium 24 h post seeding. DDRs were monitored after 24, 48 and 72 h by live cell confocal imaging (Figure 1A and B). For the 4-day repeated exposure scenario in 3D, each day medium was replaced by freshly diluted compound in medium for four consecutive days (Figure 1C and D). The imaging was started 24 h after the last exposure. For both scenarios, five compounds in eight concentrations were tested. DMSO, PBS or ultrapure H2O were used as solvent controls. The ATP-lite luminescence kit (Perkin Elmer) was used according to supplier’s protocol to measure cell viability. Measurements were performed 72 h or 24 h post single or repeated exposure, respectively. Absolute IC50 values have been calculated over the ATP-lite data by determining the intersect of the fitted concentration–response curve with the 50% viability baseline via GraphPad prism 8.1.1.
(§3) Prior to imaging, cells were stained with Hoechst 33342 at a concentration of 0.1 µg/ml to visualise the nuclei. To examine compound-induced cell death using confocal microscopy, propidium iodide (PI) was added during all compound exposures at a concentration of 100 µM to stain for necrotic or late apoptotic cells. The induction of GFP intensities and PI were monitored with a Nikon Eclipse Ti confocal laser microscope (Nikon, Amsterdam, The Netherlands), equipped with lasers at wavelengths 408, 488 and 561, an automated stage and perfect focus system at 37°C and 5% CO2. Images for 2D cultures were acquired with a Nikon 20x Dry Plan Apo VC NA 0.75 objective. Images for 3D cultures were acquired with a Nikon 10x Dry Plan Fluor NA 0.3 objective. For each condition, a z-stack of 9–11 images was generated with a step size of 30 µm.
(§4) For 2D cultures, image quantification was performed with Cell Profiler version 2.2.0 (Broad Institute, Cambridge, USA) using modules described previously ([14]). Nuclei segmentation based on Hoechst was done in ImageJ using an in-house developed macro based on the watershed masked clustering algorithm ([27]). Segmentation of the cytoplasmic area was done using the Distance N method expanding the edges of nuclear objects with six pixels followed by subtraction of the nuclear area. p21 and p53-GFP intensities were measured in the nuclei and BTG2-GFP in the cytoplasm. The PI-positive cells were identified by an overlay of the PI signal and the segmented nuclei. A cell was considered positive when there was at least 10% overlap. Results were stored in HDF5 format ([28]). To extract summarised data for further analysis and visualisation, in-house developed R-scripts were used in RStudio (version 1.0.153) (Boston, MA, USA) ([29–31]). The mean nuclear and cytoplasmic intensities of all measured single cells and the fraction of PI-positive cells for each image were extracted as output from the HDF5 files.
(§5) For 3D cultures, the NIS Elements analysis software (Nikon, Amsterdam, The Netherlands) was used to quantify the GFP intensity and PI-positive area within spheroids.

Data set [3] concerns p53 pathway activation (p53-GFP, p21-GFP, BTG2-GFP HepG2 reporters). Type of data set: cell-based. To be noted: for DDR (p21 and p53 activation): 3D, 4-day repeated dosing. The protocol:
as §1, §2, §3, §4, §5

Data set [4] deals with PHH. The arrangement: method as in PMID 32318794. To be noted: cited from earlier work.

For the compound `Cc1c(-c2ccc(-c3ccccc3F)cc2)nc2ccc(F)cc2c1C(=O)O` [Brequinar], the “maximal p53 induction compared to other reporters” value in data set [1] is listed as ~ 3 fold. In addition, in data set [2] (four culture conditions), the “BTG2-GFP response across culture conditions” value is “only induced BTG2-GFP responses in the proliferating HepG2 cultured in 2D in normal DMEM medium”. Also, the “DDR (p21 and p53 activation)” value in data set [3] (AAGLY medium) is “induced a DDR (p21 and p53 activation) at the highest concentration”; in data set [3] (normal DMEM medium), “not seen”. The DDR entry in data set [3] (24 h after exposure) is reported as “no DDR was observed”.

`N.N.[Cl][Pt][Cl]` [Cisplatin]: in data set [4], the “PoD (CometChip)” value is 6.3 µM. Besides, the “DDR detection (PoD)” value in data set [3] (2D culturing, AAGLY medium) is listed as “could not be detected”. Also, the “concentration giving clear reporter activation” value in data set [3] (AAGLY medium or 3D culture) is recorded as ≥ 10 µM. Besides, in data set [3] (HepG2 2D, normal DMEM medium), the “PoD of reporter activation” value fell in the range of 0.32 to 1.83 µM. Moreover, the “concentration giving clear concentration-dependent reporter activation” value in data set [3] (all DNA damage reporters, 2D, normal DMEM medium) is ≥ 0.46 µM.

Regarding `Nc1ccn([C@@H]2O[C@H](CO)[C@@H](O)C2(F)F)c(=O)n1` [Gemcitabine], the “BTG2-GFP response across culture conditions” value in data set [2] (human) is given as “only induced BTG2-GFP responses in the proliferating HepG2 cultured in 2D in normal DMEM medium”. Moreover, in data set [3], the “PoD of reporter activation” value was “did not induce a quantifiable genotoxic effect” and the “genotoxic effects (reporter activation)” value is “almost absent”. In data set [3] (human), the “PoD of reporter activation” value is ≤ 0.028 µM.

Turning to Aflatoxin B1, the “concentration of peak BTG2-GFP induction” value in data set [2] is 10 µM. For the same compound, in data set [3], the “concentration at which reporter induction was already observed” value was 0.1 µM; the “induction of DNA damage reporters” value is “induced DNA damage reporters (BTG2, p21 and p53) in all culture conditions”; the reporter induction is ≤ 4.5 fold.
